Data reported in patent publication US20110082130A1 (LIGAND PHARMACEUTICALS, INC., priority 2006, published 2011).

target: T1, chimeric human H3 receptor (Homo sapiens, UniProt Q9Y5N1); assay: Chimeric human H3 receptor screening GTP binding assay (inhibition of histamine-stimulated GTP-gamma35S binding, Example 8); type: biochemical; settings: Table II "Ki", symbol †, 4 μM of the compound, 1 μM histamine, read-out: percent inhibition of the signal obtained with 1 μM histamine
T1 construct: made in house; host or cells: Sf9 insect cells (baculovirus); P2 membrane preparation
T1 sequence (Q9Y5N1 with tags, fused parts or gaps): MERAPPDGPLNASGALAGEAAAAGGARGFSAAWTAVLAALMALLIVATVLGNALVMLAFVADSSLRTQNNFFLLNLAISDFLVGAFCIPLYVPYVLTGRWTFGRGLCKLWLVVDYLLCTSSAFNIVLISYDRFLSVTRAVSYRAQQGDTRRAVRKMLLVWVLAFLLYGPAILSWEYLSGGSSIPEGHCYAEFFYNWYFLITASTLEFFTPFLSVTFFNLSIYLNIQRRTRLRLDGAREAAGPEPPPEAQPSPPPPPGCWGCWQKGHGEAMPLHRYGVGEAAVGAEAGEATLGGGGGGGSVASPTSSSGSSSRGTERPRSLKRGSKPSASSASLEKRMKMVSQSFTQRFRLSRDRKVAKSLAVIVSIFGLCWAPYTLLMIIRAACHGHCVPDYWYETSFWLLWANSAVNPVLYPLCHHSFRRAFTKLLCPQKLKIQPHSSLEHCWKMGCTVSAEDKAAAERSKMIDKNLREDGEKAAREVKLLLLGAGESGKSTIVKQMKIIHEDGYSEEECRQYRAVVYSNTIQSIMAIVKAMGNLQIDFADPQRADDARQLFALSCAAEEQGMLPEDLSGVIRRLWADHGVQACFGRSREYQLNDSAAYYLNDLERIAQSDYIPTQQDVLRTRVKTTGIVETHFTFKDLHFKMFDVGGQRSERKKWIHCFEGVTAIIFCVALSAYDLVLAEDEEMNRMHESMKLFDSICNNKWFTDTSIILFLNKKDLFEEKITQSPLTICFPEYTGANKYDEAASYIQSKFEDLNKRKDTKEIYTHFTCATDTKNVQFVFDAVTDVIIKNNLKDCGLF
Procedure, shortened: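 Sf9 membranes co-expressing chimeric human H3 receptor and heterotrimeric G-protein, 35 μg per reaction, incubated 60 min at room temperature with 4 μM compound, 1 μM histamine, 10 μM GDP and […] GTP-gamma35S at pH 7.4. Filter-bound radioactivity counted. Result expressed as percent inhibition of the histamine signal after subtracting non-specific binding (10 μM GTP-gammaS).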

Inhibition at 4 µM, ≥ 90%:
O=C(CN1CCc2cc(-c3ccccc3Oc3ccccc3)ccc2C1)N1CCN(C2CCC2)CC1 [Compound 575, 2-[2-(4-cyclobutylpiperazin-1-yl)-2-oxoethyl]-6-(2-phenoxyphenyl)-1,2,3,4-tetrahydroisoquinoline]
O=C(CN1CCc2cc(-c3ccccc3Oc3ccccc3)ccc2C1)N1CCN(C2CCCC2)CC1 [Compound 576, 2-[2-(4-cyclopentylpiperazin-1-yl)-2-oxoethyl]-6-(2-phenoxyphenyl)-1,2,3,4-tetrahydroisoquinoline]
O=C(CN1CCc2cc(-c3ccccc3Oc3ccccc3)ccc2C1)N1CCN(C2CCCCC2)CC1 [Compound 577, 2-[2-(4-cyclohexylpiperazin-1-yl)-2-oxoethyl]-6-(2-phenoxyphenyl)-1,2,3,4-tetrahydroisoquinoline]
CC(C)N1CCN(C(=O)CN2CCc3cc(-c4ccccc4Oc4ccccc4)ccc3C2)CC1 [Compound 578, 2-[2-(4-isopropylpiperazin-1-yl)-2-oxoethyl]-6-(2-phenoxyphenyl)-1,2,3,4-tetrahydroisoquinoline]
O=C(CN1CCc2cc(-c3ccc(F)c(Cl)c3)ccc2C1)N1CCN(C2CCC2)CC1 [Compound 579, 6-(3-chloro-4-fluorophenyl)-2-[2-(4-cyclobutylpiperazin-1-yl)-2-oxoethyl]-1,2,3,4-tetrahydroisoquinoline]
O=C(CN1CCc2cc(-c3ccc(F)c(Cl)c3)ccc2C1)N1CCN(C2CCCC2)CC1 [Compound 580, 6-(3-chloro-4-fluorophenyl)-2-[2-(4-cyclopentylpiperazin-1-yl)-2-oxoethyl]-1,2,3,4-tetrahydroisoquinoline]
O=C(CN1CCc2cc(-c3ccc(F)c(Cl)c3)ccc2C1)N1CCN(C2CCCCC2)CC1 [Compound 581, 6-(3-chloro-4-fluorophenyl)-2-[2-(4-cyclohexylpiperazin-1-yl)-2-oxoethyl]-1,2,3,4-tetrahydroisoquinoline]
O=C(CN1CCc2cc(-c3cc(F)ccc3F)ccc2C1)N1CCN(C2CCC2)CC1 [Compound 582, 2-[2-(4-cyclobutylpiperazin-1-yl)-2-oxoethyl]-6-(2,5-difluorophenyl)-1,2,3,4-tetrahydroisoquinoline]
O=C(CN1CCc2cc(-c3cc(F)ccc3F)ccc2C1)N1CCN(C2CCCC2)CC1 [Compound 583, 2-[2-(4-cyclopentylpiperazin-1-yl)-2-oxoethyl]-6-(2,5-difluorophenyl)-1,2,3,4-tetrahydroisoquinoline]
O=C(CN1CCc2cc(-c3cc(F)ccc3F)ccc2C1)N1CCN(C2CCCCC2)CC1 [Compound 584, 2-[2-(4-cyclohexylpiperazin-1-yl)-2-oxoethyl]-6-(2,5-difluorophenyl)-1,2,3,4-tetrahydroisoquinoline]
CC(C)N1CCN(C(=O)CN2CCc3cc(-c4cc(F)ccc4F)ccc3C2)CC1 [Compound 585, 6-(2,5-difluorophenyl)-2-[2-(4-isopropylpiperazin-1-yl)-2-oxoethyl]-1,2,3,4-tetrahydroisoquinoline]
O=C(CN1CCc2cc(-c3ccc(F)cc3F)ccc2C1)N1CCN(C2CCC2)CC1 [Compound 586, 2-[2-(4-cyclobutylpiperazin-1-yl)-2-oxoethyl]-6-(2,4-difluorophenyl)-1,2,3,4-tetrahydroisoquinoline]
O=C(CN1CCc2cc(-c3ccc(F)cc3F)ccc2C1)N1CCN(C2CCCC2)CC1 [Compound 587, 2-[2-(4-cyclopentylpiperazin-1-yl)-2-oxoethyl]-6-(2,4-difluorophenyl)-1,2,3,4-tetrahydroisoquinoline]
O=C(CN1CCc2cc(-c3ccc(F)cc3F)ccc2C1)N1CCN(C2CCCCC2)CC1 [Compound 588, 2-[2-(4-cyclohexylpiperazin-1-yl)-2-oxoethyl]-6-(2,4-difluorophenyl)-1,2,3,4-tetrahydroisoquinoline]
O=C(CN1CCc2cc(-c3ccc(F)c(F)c3)ccc2C1)N1CCN(C2CCC2)CC1 [Compound 589, 2-[2-(4-cyclobutylpiperazin-1-yl)-2-oxoethyl]-6-(3,4-difluorophenyl)-1,2,3,4-tetrahydroisoquinoline]
O=C(CN1CCc2cc(-c3ccc(F)c(F)c3)ccc2C1)N1CCN(C2CCCC2)CC1 [Compound 590, 2-[2-(4-cyclopentylpiperazin-1-yl)-2-oxoethyl]-6-(3,4-difluorophenyl)-1,2,3,4-tetrahydroisoquinoline]
O=C(CN1CCc2cc(-c3ccc(F)c(F)c3)ccc2C1)N1CCN(C2CCCCC2)CC1 [Compound 591, 2-[2-(4-cyclohexylpiperazin-1-yl)-2-oxoethyl]-6-(3,4-difluorophenyl)-1,2,3,4-tetrahydroisoquinoline]
O=C(CN1CCc2cc(-c3cc(Cl)cc(Cl)c3)ccc2C1)N1CCN(C2CCC2)CC1 [Compound 592, 2-[2-(4-cyclobutylpiperazin-1-yl)-2-oxoethyl]-6-(3,5-dichlorophenyl)-1,2,3,4-tetrahydroisoquinoline]
O=C(CN1CCc2cc(-c3ccc(Cl)c(F)c3)ccc2C1)N1CCN(C2CCCCC2)CC1 [Compound 593, 6-(4-chloro-3-fluorophenyl)-2-[2-(4-cyclohexylpiperazin-1-yl)-2-oxoethyl]-1,2,3,4-tetrahydroisoquinoline]
O=C(CN1CCc2cc(-c3ccc(Cl)c(Cl)c3)ccc2C1)N1CCN(C2CCC2)CC1 [Compound 594, 2-[2-(4-cyclobutylpiperazin-1-yl)-2-oxoethyl]-6-(3,4-dichlorophenyl)-1,2,3,4-tetrahydroisoquinoline]
O=C(CN1CCc2cc(-c3ccc(Cl)c(Cl)c3)ccc2C1)N1CCN(C2CCCC2)CC1 [Compound 595, 2-[2-(4-cyclopentylpiperazin-1-yl)-2-oxoethyl]-6-(3,4-dichlorophenyl)-1,2,3,4-tetrahydroisoquinoline]
O=C(CN1CCc2cc(-c3cc(F)cc(F)c3)ccc2C1)N1CCN(C2CCC2)CC1 [Compound 596, 2-[2-(4-cyclobutylpiperazin-1-yl)-2-oxoethyl]-6-(3,5-difluorophenyl)-1,2,3,4-tetrahydroisoquinoline]
O=C(CN1CCc2cc(-c3cc(F)cc(F)c3)ccc2C1)N1CCN(C2CCCC2)CC1 [Compound 597, 2-[2-(4-cyclopentylpiperazin-1-yl)-2-oxoethyl]-6-(3,5-difluorophenyl)-1,2,3,4-tetrahydroisoquinoline]
O=C(CN1CCc2cc(-c3cc(F)cc(F)c3)ccc2C1)N1CCN(C2CCCCC2)CC1 [Compound 598, 2-[2-(4-cyclohexylpiperazin-1-yl)-2-oxoethyl]-6-(3,5-difluorophenyl)-1,2,3,4-tetrahydroisoquinoline]
O=C(CN1CCc2cc(-c3cccc(F)c3F)ccc2C1)N1CCN(C2CCC2)CC1 [Compound 599, 2-[2-(4-cyclobutylpiperazin-1-yl)-2-oxoethyl]-6-(2,3-difluorophenyl)-1,2,3,4-tetrahydroisoquinoline]
O=C(CN1CCc2cc(-c3cccc(F)c3F)ccc2C1)N1CCN(C2CCCC2)CC1 [Compound 600, 2-[2-(4-cyclopentylpiperazin-1-yl)-2-oxoethyl]-6-(2,3-difluorophenyl)-1,2,3,4-tetrahydroisoquinoline]
O=C(CN1CCc2cc(-c3cccc(F)c3F)ccc2C1)N1CCN(C2CCCCC2)CC1 [Compound 601, 2-[2-(4-cyclohexylpiperazin-1-yl)-2-oxoethyl]-6-(2,3-difluorophenyl)-1,2,3,4-tetrahydroisoquinoline]
CC(C)N1CCN(C(=O)CN2CCc3cc(-c4cccc(F)c4F)ccc3C2)CC1 [Compound 602, 6-(2,3-difluorophenyl)-2-[2-(4-isopropylpiperazin-1-yl)-2-oxoethyl]-1,2,3,4-tetrahydroisoquinoline]
CCN1CCN(C(=O)CN2CCc3cc(-c4cncnc4)ccc3C2)CC1 [Compound 603, 2-[2-(4-ethylpiperazin-1-yl)-2-oxoethyl]-6-pyrimidin-5-yl-1,2,3,4-tetrahydroisoquinoline]
CCCCN1CCN(C(=O)CN2CCc3cc(-c4cncnc4)ccc3C2)CC1 [Compound 604, 2-[2-(4-butylpiperazin-1-yl)-2-oxoethyl]-6-pyrimidin-5-yl-1,2,3,4-tetrahydroisoquinoline]
CC(C)CN1CCN(C(=O)CN2CCc3cc(-c4cncnc4)ccc3C2)CC1 [Compound 605, 2-[2-(4-isobutylpiperazin-1-yl)-2-oxoethyl]-6-pyrimidin-5-yl-1,2,3,4-tetrahydroisoquinoline]
CCC(C)N1CCN(C(=O)CN2CCc3cc(-c4cncnc4)ccc3C2)C[C@H]1C (stereo partly drawn) [Compound 606, 2-{2-[(3R)-4-sec-butyl-3-methylpiperazin-1-yl]-2-oxoethyl}-6-pyrimidin-5-yl-1,2,3,4-tetrahydroisoquinoline]
CC(C)C(C)N1CCN(C(=O)CN2CCc3cc(-c4cncnc4)ccc3C2)CC1 (stereo not shown) [Compound 607, 2-{2-[4-(1,2-dimethylpropyl)piperazin-1-yl]-2-oxoethyl}-6-pyrimidin-5-yl-1,2,3,4-tetrahydroisoquinoline]
CC(C1CC1)N1CCN(C(=O)CN2CCc3cc(-c4cncnc4)ccc3C2)CC1 (stereo not shown) [Compound 609, 2-{2-[4-(1-cyclopropylethyl)piperazin-1-yl]-2-oxoethyl}-6-pyrimidin-5-yl-1,2,3,4-tetrahydroisoquinoline]
